We go through 1 molecule from US20180140578A1, “METHODS AND COMPOSITIONS FOR THE DIAGNOSIS AND SELECTIVE TREATMENT OF CANCER” (Board of Regents of the University of Texas System, priority 2016, published 2018).

In test [1] the target is T1, RBM39-AcGFP (Homo sapiens, UniProt Q14498+Q66K64).
T1 construct: Homology directed repair facilitates tagging of endogenous RBM39 by AID, 3xFLAG, AcGFP, or Nanoluciferase; endogenous in cells; host or cells: H1155 RBM39-AcGFP knock-in cells
Description: CRISPR inactivation of DDB1, DDA1, DCAF15; RBM39-AcGFP by flow cytometry. As to conditions: H1155 RBM39-AcGFP cells. Type of test: cell-based. Here is the method: Two independent guide RNAs targeting DDB1, DDA1, DCAF15 were cloned into PX459. 0.2 million H1155 RBM39-AcGFP cells were transfected with PX459 sgRNA constructs and selected with 2 μg/ml puromycin to enrich for transfected cells. […] Cells were then trypsinized and the expression of RBM39-AGFP was quantified with flow cytometry. H1155 cells transfected with DCAF15 guide RNA were sparsely plated on 10 cm^2 plates and clones were isolated. Genomic DNA sequence flanking the cut site were amplified and sequenced to identify DCAF15−/− clones.

The target in test [2] is T2, DDB1:DCAF15-GST and RBM39Δ150 (Homo sapiens, UniProt Q14498+Q66K64).
T2 construct: made in house; host or cells: Sf9 (baculovirus)
Description: Indisulam dependent co-fractionation of DCAF15-DDB1 and RBM39 (size exclusion chromatography). Type of test: binding. As to conditions: 10 μM indisulam. The procedure:
RBM39 lacking the first 150 amino acids after the start codon (RBM39Δ150) was cloned into the pFastBac1 (Life Technologies) vector. Site-directed Mutagenesis of RBM39 was performed using Q5 site-directed mutagenesis kit (NEB). DCAF15-GST (C-terminal GST tag) and DDB1 were also cloned into pFastBac1. The production of baculovirus was carried out following vendor's instructions. Protein was expressed in SF9 cells by infection with each protein specific baculovirus, and cells were harvested 48 hr later and frozen in liquid nitrogen. For purification of RBM39Δ150, frozen cells were pulverized by cryomill and resuspended in lysis buffer (40 mM Tris, pH 7.5, 225 mM NaCl, 1× […] Protease inhibitor). The lysate was passed through a 22 gauge needle 2 times followed by ultracentrifugation at 25000 rpm for 30 min. Clarified lysate was incubated with Ni-NTA agarose (Qiagen) for 30 min with rotation at 4° C. Resin and bound protein were washed with wash buffer 1 (40 mM Tris, pH 7.5, 225 mM NaCl) followed by wash buffer 2 (40 mM Tris, pH 7.5, 20 mM imidazole, 225 mM NaCl). Proteins were eluted with elution buffer (40 mM Tris, pH 7.5, 300 mM imidazole, 225 mM NaCl) and concentrated to 0.5 ml. […]
The mixture was incubated for 1 hour with rotation at 4° C. […] 1 ml fractions were collected and analyzed by SDS-PAGE and coomassie blue staining.

In test [3] the test system is non-small cell lung cancer cell lines. Description: IC50 assay, U2AF1 S34F vs wild type NSCLC cell lines. As to conditions: four S34F vs sixty-six wild type lines; p=0.01. Type of test: cell-based, human. Here is the method:
Cells were plated at ˜15% confluence in a media comprising 5% concentration of fetal bovine serum supplemented with RPMI, which included 2 mM L-Glutamine in a 96 well dish. […] Following three days of incubation in a 5% CO2 incubator, the total ATP in each well was quantified using Cell Titer Glo (Promega). […] The solid lines represent the medians.

The subject of test [4] is tumors derived from parental HCT-116 cells. As to conditions: IV 25 mg/kg for 8 days; immune deficient mice; cited from earlier work.
For test [5], the system named is human cancer cell lines. As to conditions: cited from earlier work.
Test [6] concerns the target T3, RBM39-3xFLAG with DDA1, DDB1, CUL4A, CUL4B (Homo sapiens, UniProt Q14498+Q66K64).
T3 construct: endogenous in cells; host or cells: HCT-116 RBM39-3xFLAG knock-in cells (treated cells in A90)
In words: Co-immunoprecipitation of RBM39-3xFLAG from treated cells. It is filed as cell-based. As to conditions: cells treated with indisulam but not DMSO. The procedure:
Anti-Flag M2 antibody (Sigma-Aldrich) was coupled to Dynabeads M-270 epoxy beads (Life Technologies) at the ratio of 10 μg of antibody/mg beads. […] Frozen cells were then pulverized in the a cryomill (Retsch) with one 25 mm steel ball and five cycles of three min at 25 Hz with intermittent cooling in liquid nitrogen. […] The lysates were centrifuged at 8000 g for 5 min at 4° C. 12 mg of conjugated Anti-Flag magnetic beads were mixed with clarified lysates for 5 min at 4° C. on a rotating platform, followed by three washes with IP buffer. Bound proteins were eluted with 1 mg/ml 3xFLAG peptide, followed by SDS-PAGE on a 10% Bis Tris gel. After brief electrophoresis, bands containing all the proteins were cut with clean blades. For western blotting of co-immunoprecipitated proteins, anti-DDA1 (ProteinTech, 14995-1-AP, 1:1000), anti-DDB1 (Abcam, ab109027, 1;10000), anti-CUL4A (Cell Signaling, 2699, 1:1000), anti-CUL4B (ProteinTech, 12916-1-AP, 1:1000) were used.

The target in test [7] is T4, RBM39-3xFLAG (Homo sapiens, UniProt Q14498+Q66K64).
T4 construct: expressed in transfected cells; host or cells: 293T
In words: In vivo polyubiquitination of RBM39. As to conditions: DCAF15 co-expressed; 293T cells. Type of test: cell-based. The procedure: cDNAs encoding RBM39-3xFLAG, RBM39 G268V-3xFLAG, and DCAF15-V5 were cloned into the pCDNA3.1+vector. pCMV 8XHis Ub was a gift from William Kaelin (Dana Farber Cancer Institute). 0.4 million 293T cells were seeded per well on 6-well plates and allowed to attach overnight. 250 ng of pCMV 8XHis Ub, 500 ng of pCDNA3-DCAF15-V5, 10 ng of either pCDNA3-RBM39-3xFLAG or pCDNA3-RBM39 G268V-3xFLAG were transfected. […] Cells were lifted from the plates by pipetting, pelleted by centrifugation, and washed once with PBS. Purification of His-Ub tagged proteins was performed as described (5).

T2 sequence (Q66K64 whole entry, stated change not applied): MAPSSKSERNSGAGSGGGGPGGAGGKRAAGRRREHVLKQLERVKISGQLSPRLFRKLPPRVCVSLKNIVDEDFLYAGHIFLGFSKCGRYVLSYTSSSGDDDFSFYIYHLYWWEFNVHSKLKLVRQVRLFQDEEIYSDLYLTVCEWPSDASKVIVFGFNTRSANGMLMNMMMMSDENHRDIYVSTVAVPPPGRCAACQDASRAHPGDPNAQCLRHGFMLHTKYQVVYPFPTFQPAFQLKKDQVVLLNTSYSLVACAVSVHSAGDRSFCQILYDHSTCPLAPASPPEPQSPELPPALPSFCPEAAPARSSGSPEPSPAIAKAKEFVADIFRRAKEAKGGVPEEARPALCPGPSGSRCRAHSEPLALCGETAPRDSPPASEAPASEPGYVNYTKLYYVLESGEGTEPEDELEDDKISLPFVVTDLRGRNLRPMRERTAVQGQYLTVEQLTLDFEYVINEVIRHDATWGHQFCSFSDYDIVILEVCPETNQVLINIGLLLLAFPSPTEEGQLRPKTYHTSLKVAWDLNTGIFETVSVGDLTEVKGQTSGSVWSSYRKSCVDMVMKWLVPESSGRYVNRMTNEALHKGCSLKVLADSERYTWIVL
T2 sequence (Q14498 151-530 limits assumed, stated change not applied): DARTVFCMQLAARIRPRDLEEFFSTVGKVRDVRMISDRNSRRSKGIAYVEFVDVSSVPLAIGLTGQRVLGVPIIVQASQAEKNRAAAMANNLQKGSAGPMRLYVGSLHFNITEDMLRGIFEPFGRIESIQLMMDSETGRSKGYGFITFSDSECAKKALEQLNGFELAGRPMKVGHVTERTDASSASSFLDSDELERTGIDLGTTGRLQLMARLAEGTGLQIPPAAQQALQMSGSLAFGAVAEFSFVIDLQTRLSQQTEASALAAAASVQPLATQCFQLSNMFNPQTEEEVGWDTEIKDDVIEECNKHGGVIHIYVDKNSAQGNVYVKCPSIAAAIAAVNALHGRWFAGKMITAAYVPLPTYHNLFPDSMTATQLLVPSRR
T2 sequence (Q16531 whole entry partner): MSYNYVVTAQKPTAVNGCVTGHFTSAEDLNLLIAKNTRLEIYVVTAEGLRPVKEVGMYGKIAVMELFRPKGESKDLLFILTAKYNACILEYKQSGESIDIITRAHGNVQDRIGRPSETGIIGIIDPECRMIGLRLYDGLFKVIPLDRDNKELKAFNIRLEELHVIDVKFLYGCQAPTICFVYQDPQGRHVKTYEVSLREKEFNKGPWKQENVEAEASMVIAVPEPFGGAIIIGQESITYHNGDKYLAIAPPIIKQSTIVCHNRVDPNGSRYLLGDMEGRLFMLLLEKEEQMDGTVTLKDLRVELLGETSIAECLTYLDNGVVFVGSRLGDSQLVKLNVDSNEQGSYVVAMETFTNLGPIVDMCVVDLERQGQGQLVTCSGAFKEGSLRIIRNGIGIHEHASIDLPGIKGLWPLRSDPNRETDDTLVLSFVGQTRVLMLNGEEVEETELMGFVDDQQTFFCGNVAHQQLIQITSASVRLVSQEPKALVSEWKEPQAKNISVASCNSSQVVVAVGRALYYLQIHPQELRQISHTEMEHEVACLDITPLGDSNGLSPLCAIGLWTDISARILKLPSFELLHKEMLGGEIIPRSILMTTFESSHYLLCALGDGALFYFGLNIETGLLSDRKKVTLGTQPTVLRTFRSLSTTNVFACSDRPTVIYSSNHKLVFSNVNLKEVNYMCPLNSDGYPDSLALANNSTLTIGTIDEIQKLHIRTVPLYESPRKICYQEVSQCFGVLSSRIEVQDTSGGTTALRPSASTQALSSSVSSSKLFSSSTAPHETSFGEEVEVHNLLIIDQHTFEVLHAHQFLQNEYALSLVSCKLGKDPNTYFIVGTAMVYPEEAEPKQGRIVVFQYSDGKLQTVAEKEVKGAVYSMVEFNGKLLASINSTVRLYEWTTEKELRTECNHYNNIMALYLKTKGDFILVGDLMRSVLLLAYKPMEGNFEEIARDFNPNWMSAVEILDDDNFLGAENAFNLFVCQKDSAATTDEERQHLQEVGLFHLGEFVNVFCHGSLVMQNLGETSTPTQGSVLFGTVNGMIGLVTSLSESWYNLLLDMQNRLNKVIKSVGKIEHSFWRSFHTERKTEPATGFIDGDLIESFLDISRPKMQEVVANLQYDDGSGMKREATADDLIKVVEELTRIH

For the molecule `NS(=O)(=O)c1ccc(S(=O)(=O)Nc2cccc3c(Cl)c[nH]c23)cc1` [Indisulam, indisulam], in test [1], the “RBM39-AcGFP after indisulam treatment” value was “degraded”. Moreover, the “elution of RBM39Δ150 with DDB1:DCAF15-GST peak” value in test [2] is recorded as “co-elutes”. For the same molecule, the “sensitivity of U2AF1 S34F vs U2AF1 wild type NSCLC cell lines” value in test [3] is “more sensitive”. In addition, the “tumor response (previously shown)” value in test [4] is “regression”. Also, the “effect on cell cycle” value in test [5] is reported as “cell cycle arrest in the G1 phase followed by cell death”. The “co-purification of RBM39-3xFLAG with DDA1, DDB1, CUL4A, CUL4B” value in test [6] is listed as “co-purified”. Also, in test [7], the RBM39 ubiquitination result is “increased RBM39 ubiquitination”.
